Laboratory results published in patent publication US12667608B2 (priority 2020, dated 2026).
Values after ≈ are worked out from the molar mass of the structure shown.

Columns and labels:
Assay in all cases: microbe, parasite or virus in culture
Format in all cases: cell-based
M. bovis BCG = details: Mycobacterium tuberculosis variant bovis BCG, 672 h
Mtb H37Rv = details: Mycobacterium tuberculosis, 672 h
[1] = tested on: Recombinant drug-resistant BCG Strain; details: Mycobacterium tuberculosis variant bovis BCG, 672 h

| Compound | MIC (M. bovis BCG) | MIC (Mtb H37Rv) | MIC [1] |
| --- | --- | --- | --- |
| CO[C@H]1/C=C/O[C@@]2(C)Oc3c(C)c(O)c4c(O)c(c(/C=N/N5CCN(C)CC5)c(O)c4c3C2=O)NC(=O)/C(C)=C\C=C\[C@H](C)[C@H](O)[C@@H](C)[C@@H](O)[C@@H](C)[C@H](OC(C)=O)[C@@H]1C [RIF, rifampicin] | 0.032 mg/L (≈ 0.0389 µM) | 0.25 mg/L (≈ 0.304 µM) | 0.5 mg/L (≈ 0.608 µM) |
| NNC(=O)c1ccncc1 [INH, isoniazid] | 0.1 mg/L (≈ 0.729 µM) | 0.03 to 0.06 mg/L (≈ 0.219 to 0.438 µM) | 0.06 mg/L (≈ 0.438 µM) |
| [H]/N=C(/N)N[C@H]1[C@H](O)[C@@H](O)[C@H](O[C@@H]2O[C@@H](C)[C@](O)(C=O)[C@H]2O[C@@H]2O[C@@H](CO)[C@H](O)[C@@H](O)[C@@H]2NC)[C@@H](N/C(N)=N\[H])[C@@H]1O [STR, streptomycin] | 0.25 mg/L (≈ 0.43 µM) | 1 mg/L (≈ 1.72 µM) | 64 mg/L (≈ 110 µM) |
| Nc1ccc(C(=O)O)c(O)c1 [PAS, para-aminosalicylic acid] | 0.25 mg/L (≈ 1.63 µM) | 0.3 to 1 mg/L (≈ 1.96 to 6.53 µM) | 0.25 mg/L (≈ 1.63 µM) |
| COc1c(N2C[C@@H]3CCCN[C@@H]3C2)c(F)cc2c(=O)c(C(=O)O)cn(C3CC3)c12 [MFX, moxifloxacin] | 0.5 mg/L (≈ 1.25 µM) | 0.25 to 0.5 mg/L (≈ 0.623 to 1.25 µM) | 4 mg/L (≈ 9.96 µM) |
| O=[N+]([O-])c1cn2c(n1)OC[C@@H](OCc1ccc(OC(F)(F)F)cc1)C2 [PA-824, Pretomanid] | 0.25 mg/L (≈ 0.696 µM) | 0.06 to 0.125 mg/L (≈ 0.167 to 0.348 µM) | 0.25 mg/L (≈ 0.696 µM) |
| COc1nc2ccc(Br)cc2cc1[C@@H](c1ccccc1)[C@@](O)(CCN(C)C)c1cccc2ccccc12 [TMC 207, bedaquiline] | 0.03 mg/L (≈ 0.054 µM) | 0.03 to 0.12 mg/L (≈ 0.054 to 0.216 µM) | 0.03 mg/L (≈ 0.054 µM) |
| CC(C)/N=c1\cc2n(-c3ccc(Cl)cc3)c3ccccc3nc-2cc1Nc1ccc(Cl)cc1 [CLA, clofazimine] | 0.25 mg/L (≈ 0.528 µM) | 8 mg/L (≈ 16.9 µM) | 0.5 mg/L (≈ 1.06 µM) |
| NCC[C@H](O)C(=O)N[C@@H]1C[C@H](N)[C@@H](O[C@H]2O[C@H](CN)[C@@H](O)[C@H](O)[C@H]2O)[C@H](O)[C@H]1O[C@H]1O[C@H](CO)[C@@H](O)[C@H](N)[C@H]1O [AMK, amikacin] | 0.5 mg/L (≈ 0.854 µM) | 0.5 to 1 mg/L (≈ 0.854 to 1.71 µM) | 5 mg/L (≈ 8.54 µM) |
| CC(=O)NC[C@H]1CN(c2ccc(N3CCOCC3)c(F)c2)C(=O)O1 [LZD, linezolid] | 0.125 to 0.5 mg/L (≈ 0.371 to 1.48 µM) | 0.25 mg/L (≈ 0.741 µM) | 0.03 mg/L (≈ 0.0889 µM) |
| C[C@H]1COc2c(N3CCN(C)CC3)c(F)cc3c(=O)c(C(=O)O)cn1c23 [LFX, levofloxacin] | 0.5 mg/L (≈ 1.38 µM) | 0.5 mg/L (≈ 1.38 µM) | 4 mg/L (≈ 11.1 µM) |
| CC[C@@H](CO)NCCN[C@@H](CC)CO [EMB, ethambutol] | 0.5 mg/L (≈ 2.45 µM) | 0.5 mg/L (≈ 2.45 µM) | 5 mg/L (≈ 24.5 µM) |
| CCCc1cc(C(N)=S)ccn1 [PRO, prothionamide] | 0.25 mg/L (≈ 1.39 µM) | 0.5 mg/L (≈ 2.77 µM) | 64 mg/L (≈ 355 µM) |
